Reference: ChEMBL document CHEMBL5260810, “Inhibition of bromodomain-containing protein 9 for the prevention of epigenetically-defined drug resistance” (Bioorg Med Chem Lett, 2017)

Target: Sodium-dependent serotonin transporter (Homo sapiens) (UniProt P31645)
Test: Displacement of [3H]-imipramine from recombinant human 5-HT transporter at 10 uM after 60 mins by scintillation counting relative to control
Conditions: not given

Sodium-dependent serotonin transporter (Homo sapiens), sequence (P31645 whole entry, looked up): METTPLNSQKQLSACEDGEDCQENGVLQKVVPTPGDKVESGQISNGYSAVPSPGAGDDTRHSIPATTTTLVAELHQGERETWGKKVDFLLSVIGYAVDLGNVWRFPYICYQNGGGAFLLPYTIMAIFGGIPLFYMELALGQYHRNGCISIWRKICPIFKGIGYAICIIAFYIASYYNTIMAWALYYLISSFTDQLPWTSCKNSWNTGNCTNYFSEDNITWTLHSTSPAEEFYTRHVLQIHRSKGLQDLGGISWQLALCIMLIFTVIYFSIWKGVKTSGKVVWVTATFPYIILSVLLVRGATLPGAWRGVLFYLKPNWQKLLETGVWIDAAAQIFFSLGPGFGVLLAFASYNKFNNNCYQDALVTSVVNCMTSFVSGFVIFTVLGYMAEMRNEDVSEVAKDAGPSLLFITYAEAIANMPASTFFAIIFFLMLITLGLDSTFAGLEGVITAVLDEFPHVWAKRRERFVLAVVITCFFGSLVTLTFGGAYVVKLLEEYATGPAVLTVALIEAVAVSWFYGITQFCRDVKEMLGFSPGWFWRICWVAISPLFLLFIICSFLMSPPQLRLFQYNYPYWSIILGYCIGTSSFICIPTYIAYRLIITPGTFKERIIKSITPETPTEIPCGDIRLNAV

Q: With C/C=C/Cn1cc(-c2ccc(C(C)(C)O)cc2OC)c2cc[nH]c2c1=O as the compound, how does the Activity read?
A: Its Activity is 3%.

System: MEL-JUSO
Test: Cytotoxicity against human MEL-JUSO cells measured after 8 days
Assay type: functional, cell-based
Conditions: 192 h

Q: For C/C=C/Cn1cc(-c2ccc(C(C)(C)O)cc2OC)c2cc[nH]c2c1=O, which IC50 is on record?
A: Its IC50 is 20 µM.

Target: T1, Myosin light chain kinase (Homo sapiens) (UniProt Q32MK0)
T1 sequence (whole entry): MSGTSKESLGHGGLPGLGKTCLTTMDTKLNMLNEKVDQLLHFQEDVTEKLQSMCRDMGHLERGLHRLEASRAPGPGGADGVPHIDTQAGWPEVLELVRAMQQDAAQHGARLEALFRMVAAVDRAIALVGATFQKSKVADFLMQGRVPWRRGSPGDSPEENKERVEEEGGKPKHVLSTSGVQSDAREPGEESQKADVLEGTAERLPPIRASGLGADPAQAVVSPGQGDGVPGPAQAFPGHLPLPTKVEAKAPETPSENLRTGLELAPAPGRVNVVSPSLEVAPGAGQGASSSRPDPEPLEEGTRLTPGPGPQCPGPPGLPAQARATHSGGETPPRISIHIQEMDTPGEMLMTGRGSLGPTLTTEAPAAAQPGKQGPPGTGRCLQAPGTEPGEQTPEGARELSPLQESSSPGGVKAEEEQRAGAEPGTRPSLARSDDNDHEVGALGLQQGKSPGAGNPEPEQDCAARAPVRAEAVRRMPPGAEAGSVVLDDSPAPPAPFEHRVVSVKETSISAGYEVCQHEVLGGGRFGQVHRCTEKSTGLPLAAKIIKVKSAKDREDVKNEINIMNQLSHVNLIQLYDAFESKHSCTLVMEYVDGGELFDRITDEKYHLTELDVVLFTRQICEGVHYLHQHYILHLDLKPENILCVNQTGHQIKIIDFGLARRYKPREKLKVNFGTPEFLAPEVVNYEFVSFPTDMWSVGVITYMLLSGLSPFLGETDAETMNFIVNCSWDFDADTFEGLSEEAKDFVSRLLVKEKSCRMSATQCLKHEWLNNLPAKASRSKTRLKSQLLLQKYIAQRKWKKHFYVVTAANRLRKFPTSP
Test: Inhibition of MYLK3 (unknown origin) at 1 uM relative to control
Conditions: not given

Q: For C/C=C/Cn1cc(-c2ccc(C(C)(C)O)cc2OC)c2cc[nH]c2c1=O, which inhibition is on record?
A: The inhibition was 2%.

System: not listed separately
Test: Cytotoxicity against human HS-Sultan cells measured after 8 days
Assay type: functional, cell-based
Conditions: 192 h

Q: For C/C=C/Cn1cc(-c2ccc(C(C)(C)O)cc2OC)c2cc[nH]c2c1=O, which IC50 is on record?
A: Its IC50 is 20 µM.

System: CAL-12T
Test: Cytotoxicity against human CAL-12T cells measured after 8 days
Assay type: functional, cell-based
Conditions: 192 h

Q: With C/C=C/Cn1cc(-c2ccc(C(C)(C)O)cc2OC)c2cc[nH]c2c1=O as the compound, how does the IC50 read?
A: The IC50 was 20 µM.

Target: SWI/SNF-related matrix-associated actin-dependent regulator of chromatin subfamily A member 4 (Homo sapiens, UniProt P51532)
Test: Binding affinity to human partial length SMARCA4 (A1448 to S1575 residues) expressed in bacterial expression system by BROMOscan assay
Conditions: not given

SWI/SNF-related matrix-associated actin-dependent regulator of chromatin subfamily A member 4, sequence (P51532 whole entry, the tested form may be a part): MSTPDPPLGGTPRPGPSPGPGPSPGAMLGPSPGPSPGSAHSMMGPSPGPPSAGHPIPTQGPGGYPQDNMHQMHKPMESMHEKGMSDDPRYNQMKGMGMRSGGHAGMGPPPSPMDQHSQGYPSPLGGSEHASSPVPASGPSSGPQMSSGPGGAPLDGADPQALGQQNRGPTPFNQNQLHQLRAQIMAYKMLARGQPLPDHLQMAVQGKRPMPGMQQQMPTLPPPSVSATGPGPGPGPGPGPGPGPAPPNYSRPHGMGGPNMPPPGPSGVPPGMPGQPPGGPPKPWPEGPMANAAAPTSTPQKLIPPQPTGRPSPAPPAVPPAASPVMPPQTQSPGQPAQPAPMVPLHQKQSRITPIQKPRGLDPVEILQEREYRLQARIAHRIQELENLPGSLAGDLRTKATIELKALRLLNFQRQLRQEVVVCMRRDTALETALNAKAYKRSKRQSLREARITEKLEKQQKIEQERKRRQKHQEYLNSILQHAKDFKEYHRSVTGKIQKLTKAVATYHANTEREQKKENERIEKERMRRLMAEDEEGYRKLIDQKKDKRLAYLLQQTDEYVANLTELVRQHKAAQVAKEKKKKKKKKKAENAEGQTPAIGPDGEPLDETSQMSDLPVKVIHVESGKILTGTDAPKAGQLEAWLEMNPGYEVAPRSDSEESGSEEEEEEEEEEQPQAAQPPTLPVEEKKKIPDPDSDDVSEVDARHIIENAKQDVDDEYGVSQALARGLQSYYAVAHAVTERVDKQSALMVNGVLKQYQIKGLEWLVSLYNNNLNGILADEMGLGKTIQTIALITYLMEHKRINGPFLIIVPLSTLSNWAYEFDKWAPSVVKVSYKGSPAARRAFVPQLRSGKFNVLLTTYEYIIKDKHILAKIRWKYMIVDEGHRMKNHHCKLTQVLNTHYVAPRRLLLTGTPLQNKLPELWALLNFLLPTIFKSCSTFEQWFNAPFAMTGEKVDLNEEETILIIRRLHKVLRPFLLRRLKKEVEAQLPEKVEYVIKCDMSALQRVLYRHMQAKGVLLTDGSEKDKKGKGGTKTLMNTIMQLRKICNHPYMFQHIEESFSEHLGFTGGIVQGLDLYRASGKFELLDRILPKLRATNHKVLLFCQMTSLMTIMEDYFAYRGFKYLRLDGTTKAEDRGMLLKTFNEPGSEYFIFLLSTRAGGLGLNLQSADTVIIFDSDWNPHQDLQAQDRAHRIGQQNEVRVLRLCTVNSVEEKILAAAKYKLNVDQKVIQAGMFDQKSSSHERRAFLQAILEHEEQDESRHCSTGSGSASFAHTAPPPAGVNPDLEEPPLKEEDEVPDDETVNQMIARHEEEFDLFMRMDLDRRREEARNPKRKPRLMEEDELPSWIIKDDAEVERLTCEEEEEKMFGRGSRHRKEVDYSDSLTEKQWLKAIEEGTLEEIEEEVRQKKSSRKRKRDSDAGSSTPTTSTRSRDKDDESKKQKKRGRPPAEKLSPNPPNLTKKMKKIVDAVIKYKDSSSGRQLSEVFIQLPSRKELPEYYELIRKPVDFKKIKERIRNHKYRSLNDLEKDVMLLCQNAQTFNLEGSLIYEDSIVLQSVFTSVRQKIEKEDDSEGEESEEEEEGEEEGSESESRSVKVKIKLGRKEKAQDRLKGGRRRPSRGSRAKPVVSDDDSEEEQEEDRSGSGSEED

Q: With C/C=C/Cn1cc(-c2ccc(C(C)(C)O)cc2OC)c2cc[nH]c2c1=O as the compound, how does the Kd read?
A: Its Kd is greater than 10 µM.

Target: Mu-type opioid receptor (Homo sapiens) (UniProt P35372)
Test: Displacement of [3H]DAMGO from human recombinant mu receptor at 10 uM after 120 mins by scintillation counting analysis relative to control
Conditions: not given

Mu-type opioid receptor (Homo sapiens), sequence (P35372 whole entry): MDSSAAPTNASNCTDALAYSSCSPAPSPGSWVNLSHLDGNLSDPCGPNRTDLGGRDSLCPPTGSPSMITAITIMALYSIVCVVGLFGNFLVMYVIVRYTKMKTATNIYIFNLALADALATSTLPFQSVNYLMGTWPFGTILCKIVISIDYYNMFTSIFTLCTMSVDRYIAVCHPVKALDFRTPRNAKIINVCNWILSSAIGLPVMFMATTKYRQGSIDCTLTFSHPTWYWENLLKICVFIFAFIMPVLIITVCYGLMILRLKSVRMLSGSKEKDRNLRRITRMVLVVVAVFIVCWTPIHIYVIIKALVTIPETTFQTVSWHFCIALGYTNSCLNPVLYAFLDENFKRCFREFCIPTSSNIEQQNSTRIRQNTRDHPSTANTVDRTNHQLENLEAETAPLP

Q: With C/C=C/Cn1cc(-c2ccc(C(C)(C)O)cc2OC)c2cc[nH]c2c1=O as the compound, how does the Activity read?
A: Its Activity is 10%.

Target: 5-hydroxytryptamine receptor 2B (Homo sapiens) (UniProt P41595)
Test: Displacement of [125I]+/-DOI from human recombinant 5-HT2B receptor at 10 uM after 60 mins by scintillation counting analysis relative to control
Conditions: not given

5-hydroxytryptamine receptor 2B (Homo sapiens), sequence (P41595 whole entry): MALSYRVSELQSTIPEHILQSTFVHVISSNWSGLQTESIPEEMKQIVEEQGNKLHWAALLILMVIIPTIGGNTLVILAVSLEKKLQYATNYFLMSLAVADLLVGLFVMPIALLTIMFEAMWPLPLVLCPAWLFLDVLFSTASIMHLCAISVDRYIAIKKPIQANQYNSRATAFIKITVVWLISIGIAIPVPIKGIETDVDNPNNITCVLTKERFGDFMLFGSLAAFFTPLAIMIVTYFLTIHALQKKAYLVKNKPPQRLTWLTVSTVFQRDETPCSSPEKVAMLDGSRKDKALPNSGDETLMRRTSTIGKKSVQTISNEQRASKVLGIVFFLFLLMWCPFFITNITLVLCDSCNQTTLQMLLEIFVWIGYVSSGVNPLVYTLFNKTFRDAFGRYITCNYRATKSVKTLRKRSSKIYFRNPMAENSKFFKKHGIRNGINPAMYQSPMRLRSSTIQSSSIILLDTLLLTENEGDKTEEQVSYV

Q: With C/C=C/Cn1cc(-c2ccc(C(C)(C)O)cc2OC)c2cc[nH]c2c1=O as the compound, how does the Activity read?
A: Its Activity is -2%.

Target: Bromodomain and WD repeat-containing protein 1 (Homo sapiens, UniProt Q9NSI6)
Test: Binding affinity to human partial length WDR9 bromodomain 2 (A1310 to E1430 residues) expressed in bacterial expression system by BROMOscan assay
Conditions: not given

Q: Which Kd does the source give for C/C=C/Cn1cc(-c2ccc(C(C)(C)O)cc2OC)c2cc[nH]c2c1=O here?
A: Its Kd is greater than 10 µM.

System: not listed separately
Test: Cytotoxicity against human NCI-H2106 cells measured after 8 days
Assay type: functional, cell-based
Conditions: NCI-H2106, 192 h

Q: For C/C=C/Cn1cc(-c2ccc(C(C)(C)O)cc2OC)c2cc[nH]c2c1=O, which IC50 is on record?
A: Its IC50 is 20 µM.

System: MDA-MB-157
Test: Cytotoxicity against human MDA-MB-157 cells measured after 8 days
Assay type: functional, cell-based
Conditions: MDA-MB-157, 192 h

Q: Which IC50 does the source give for C/C=C/Cn1cc(-c2ccc(C(C)(C)O)cc2OC)c2cc[nH]c2c1=O here?
A: Its IC50 is 20 µM.

Target: T2, Myotonin-protein kinase (Homo sapiens) (UniProt Q09013)
T2 sequence (whole entry): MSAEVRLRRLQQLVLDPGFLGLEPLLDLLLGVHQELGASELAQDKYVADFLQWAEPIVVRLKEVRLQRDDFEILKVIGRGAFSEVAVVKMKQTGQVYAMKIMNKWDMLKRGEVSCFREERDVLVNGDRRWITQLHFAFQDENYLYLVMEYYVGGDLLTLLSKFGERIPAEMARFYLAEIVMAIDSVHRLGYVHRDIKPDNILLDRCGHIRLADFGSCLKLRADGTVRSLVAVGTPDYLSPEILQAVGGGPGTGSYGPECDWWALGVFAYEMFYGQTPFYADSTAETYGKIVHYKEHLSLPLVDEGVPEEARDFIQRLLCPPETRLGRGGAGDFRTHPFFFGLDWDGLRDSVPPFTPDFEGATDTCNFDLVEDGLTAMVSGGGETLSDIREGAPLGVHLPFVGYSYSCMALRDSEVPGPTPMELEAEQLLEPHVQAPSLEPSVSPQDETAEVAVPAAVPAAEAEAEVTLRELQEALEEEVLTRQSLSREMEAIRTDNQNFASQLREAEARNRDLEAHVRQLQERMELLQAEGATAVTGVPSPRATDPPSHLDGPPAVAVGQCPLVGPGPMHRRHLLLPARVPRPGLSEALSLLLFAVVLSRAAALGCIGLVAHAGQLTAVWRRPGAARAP
Test: Inhibition of DMPK (unknown origin) at 1 uM relative to control
Conditions: not given

Q: With C/C=C/Cn1cc(-c2ccc(C(C)(C)O)cc2OC)c2cc[nH]c2c1=O as the compound, how does the inhibition read?
A: Its inhibition is 2.5%.

Target: Receptor-type tyrosine-protein kinase FLT3 (Homo sapiens) (UniProt P36888)
Test: Inhibition of Flt3 (unknown origin) at 1 uM relative to control
Conditions: not given

Receptor-type tyrosine-protein kinase FLT3 (Homo sapiens), sequence (P36888 whole entry): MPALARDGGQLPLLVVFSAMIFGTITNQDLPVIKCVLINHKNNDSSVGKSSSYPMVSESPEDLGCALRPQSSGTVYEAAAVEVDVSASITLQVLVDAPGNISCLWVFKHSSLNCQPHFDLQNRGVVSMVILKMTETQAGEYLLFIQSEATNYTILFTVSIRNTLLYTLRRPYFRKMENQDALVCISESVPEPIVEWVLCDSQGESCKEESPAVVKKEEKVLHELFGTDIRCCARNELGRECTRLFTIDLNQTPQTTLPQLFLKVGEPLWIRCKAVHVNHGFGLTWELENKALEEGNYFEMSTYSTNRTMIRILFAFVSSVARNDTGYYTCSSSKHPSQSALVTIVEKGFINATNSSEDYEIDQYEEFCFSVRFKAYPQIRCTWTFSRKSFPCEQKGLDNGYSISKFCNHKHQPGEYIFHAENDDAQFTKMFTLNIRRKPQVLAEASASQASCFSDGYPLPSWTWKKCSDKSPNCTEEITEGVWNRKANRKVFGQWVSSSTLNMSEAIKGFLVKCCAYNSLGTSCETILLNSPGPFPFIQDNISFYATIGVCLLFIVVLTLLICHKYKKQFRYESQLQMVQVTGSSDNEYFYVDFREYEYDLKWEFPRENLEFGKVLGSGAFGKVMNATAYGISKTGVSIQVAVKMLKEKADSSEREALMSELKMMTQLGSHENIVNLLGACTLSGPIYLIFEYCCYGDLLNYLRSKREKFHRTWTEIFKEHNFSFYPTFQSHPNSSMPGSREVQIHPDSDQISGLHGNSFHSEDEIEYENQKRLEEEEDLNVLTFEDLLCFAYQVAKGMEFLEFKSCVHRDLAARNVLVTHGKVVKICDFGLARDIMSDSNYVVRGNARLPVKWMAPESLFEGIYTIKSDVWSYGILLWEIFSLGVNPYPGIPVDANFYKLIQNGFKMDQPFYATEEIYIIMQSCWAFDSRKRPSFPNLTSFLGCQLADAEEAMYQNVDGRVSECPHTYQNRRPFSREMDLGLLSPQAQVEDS

Q: Which inhibition does the source give for C/C=C/Cn1cc(-c2ccc(C(C)(C)O)cc2OC)c2cc[nH]c2c1=O here?
A: Its inhibition is 15%.

Organism: Rattus norvegicus
Test: Displacement of [3H]flunitrazepam from rat brain central BZD at 10 uM after 60 mins by radioligand binding assay relative to control
Conditions: not given

Q: With C/C=C/Cn1cc(-c2ccc(C(C)(C)O)cc2OC)c2cc[nH]c2c1=O as the compound, how does the Activity read?
A: Its Activity is -21%.

System: not listed separately
Test: Cytotoxicity against human OVCAR433 cells measured after 8 days
Assay type: functional, cell-based
Conditions: OVCAR433, 192 h

Q: Which IC50 does the source give for C/C=C/Cn1cc(-c2ccc(C(C)(C)O)cc2OC)c2cc[nH]c2c1=O here?
A: The IC50 was 20 µM.

System: NCI-H292
Test: Cytotoxicity against human NCI-H292 cells measured after 8 days
Assay type: functional, cell-based
Conditions: NCI-H292, 192 h

Q: Which IC50 does the source give for C/C=C/Cn1cc(-c2ccc(C(C)(C)O)cc2OC)c2cc[nH]c2c1=O here?
A: Its IC50 is 20 µM.

System: NCI-H647
Test: Cytotoxicity against human NCI-H647 cells measured after 8 days
Assay type: functional, cell-based
Conditions: NCI-H647, 192 h

Q: For C/C=C/Cn1cc(-c2ccc(C(C)(C)O)cc2OC)c2cc[nH]c2c1=O, which IC50 is on record?
A: Its IC50 is 20 µM.

System: ABC-1
Test: Cytotoxicity against human ABC-1 cells measured after 8 days
Assay type: functional, cell-based
Conditions: ABC-1, 192 h

Q: For C/C=C/Cn1cc(-c2ccc(C(C)(C)O)cc2OC)c2cc[nH]c2c1=O, which IC50 is on record?
A: The IC50 was 20 µM.

System: MX1
Test: Cytotoxicity against human MX1 cells measured after 8 days
Assay type: functional, cell-based
Conditions: MX1, 192 h

Q: For C/C=C/Cn1cc(-c2ccc(C(C)(C)O)cc2OC)c2cc[nH]c2c1=O, which IC50 is on record?
A: Its IC50 is 20 µM.

System: BEN
Test: Cytotoxicity against human BEN cells measured after 8 days
Assay type: functional, cell-based
Conditions: 192 h

Q: With C/C=C/Cn1cc(-c2ccc(C(C)(C)O)cc2OC)c2cc[nH]c2c1=O as the compound, how does the IC50 read?
A: Its IC50 is 20 µM.

System: NCI-H661
Test: Cytotoxicity against human NCI-H661 cells measured after 8 days
Assay type: functional, cell-based
Conditions: NCI-H661, 192 h

Q: With C/C=C/Cn1cc(-c2ccc(C(C)(C)O)cc2OC)c2cc[nH]c2c1=O as the compound, how does the IC50 read?
A: Its IC50 is 20 µM.

System: LS-1034
Test: Cytotoxicity against human LS1034 cells measured after 8 days
Assay type: functional, cell-based
Conditions: LS-1034, 192 h

Q: With C/C=C/Cn1cc(-c2ccc(C(C)(C)O)cc2OC)c2cc[nH]c2c1=O as the compound, how does the IC50 read?
A: The IC50 was 20 µM.

System: NCI-H727
Test: Cytotoxicity against human NCI-H727 cells measured after 8 days
Assay type: functional, cell-based
Conditions: NCI-H727, 192 h

Q: Which IC50 does the source give for C/C=C/Cn1cc(-c2ccc(C(C)(C)O)cc2OC)c2cc[nH]c2c1=O here?
A: Its IC50 is 20 µM.

System: NCI-H1155
Test: Cytotoxicity against human NCI-H1155 cells measured after 8 days
Assay type: functional, cell-based
Conditions: NCI-H1155, 192 h

Q: Which IC50 does the source give for C/C=C/Cn1cc(-c2ccc(C(C)(C)O)cc2OC)c2cc[nH]c2c1=O here?
A: Its IC50 is 20 µM.

System: not listed separately
Test: Cytotoxicity against human OCI-M2 cells measured after 8 days
Assay type: functional, cell-based
Conditions: OCI-M2, 192 h

Q: For C/C=C/Cn1cc(-c2ccc(C(C)(C)O)cc2OC)c2cc[nH]c2c1=O, which IC50 is on record?
A: The IC50 was 20 µM.

System: NCI-H520
Test: Cytotoxicity against human NCI-H520 cells measured after 8 days
Assay type: functional, cell-based
Conditions: NCI-H520, 192 h

Q: Which IC50 does the source give for C/C=C/Cn1cc(-c2ccc(C(C)(C)O)cc2OC)c2cc[nH]c2c1=O here?
A: Its IC50 is 20 µM.

System: MEL-HO
Test: Cytotoxicity against human MEL-HO cells measured after 8 days
Assay type: functional, cell-based
Conditions: 192 h

Q: Which IC50 does the source give for C/C=C/Cn1cc(-c2ccc(C(C)(C)O)cc2OC)c2cc[nH]c2c1=O here?
A: Its IC50 is 16.5 µM.
